Holding throughout (assay type): in vivo
The test system of assay [1] is human skin. As to the kind of experiment: Visual evaluation of skin darkening after topical treatment of a human subject's arm. The note with it: for visual skin darkening, 2 WEEKS: one volunteer, 2 weeks of treatment; for visual skin darkening, 8 WEEKS: 8 weeks of treatment; for induction of visible skin darkening (in words): 1% topical twice a day, six to eight weeks; for visual skin darkening, 8 WKS + 1 WK: 8 weeks topical treatment followed by 1 week without any treatment; for visual skin darkening, 8 WKS + 2 WKS: 8 weeks topical treatment followed by 2 weeks without any treatment; for visual skin darkening, 8 WKS + 3 WKS: 8 weeks topical treatment followed by 3 weeks without any treatment. Also on record: key to visual skin darkening, 2 WEEKS / visual skin darkening, 4 WEEKS / visual skin darkening, 8 WEEKS / visual skin darkening, 8 WKS + 1 WK / visual skin darkening, 8 WKS + 2 WKS / visual skin darkening, 8 WKS + 3 WKS: ++: Obvious visible tan-like color; +: Weak visible tan-like color; 0: No visible tan-like color. How it is done: All the phospholipids were dissolved in an ethanol/propylene glycol vehicle (70/30, v/v) at the concentration of 1% of solid phospholipid powder. Preparations 1, 2 and 3 were tested for their ability to induce skin darkening in one human subject, with informed consent. One volunteer, Fitzpatrick skin type II, with no history of skin cancer, no skin disease or unusual skin reaction, and no topical treatments on the study sites (the upper and lower parts of the arm) within a period of 30 days before enrollment and during the treatment period, was treated with preparations 1-3. Different preparations were used in four different studies. Two studies used the upper part of the arm, and two other studies used the lower part of the arm, which were treated twice a day for six to eight weeks with 10 μl of test phospholipid solutions (1%) in ethanol: propylene glycol (70:30, v/v) vehicle, or with vehicle alone. No other products were used and no sun exposure occurred during the treatment period. Skin darkening was evaluated visually, and in some cases also by using a chromameter (ChromaMeter, Minolta, Osaka, Japan) and DRS (see Nguyen B. C., Br. J. Dermatol. 2003, 149(2):332-40). Measurements were taken at 4 and 8 weeks. The DRS instrument was assembled using a tungsten halogen light source (Model LS- 1, Ocean Optics, Dunedin, Fla., USA), Miniature Fiber Optic Spectrometer (Model USB2000, Ocean Optics, Dunedin, Fla., USA) and custom-designed bifurcated fiber optic probe (Multimode Fiber Optics Inc, East Hanover, N.J., USA). The scale used for reporting visual skin darkening is defined in the Table 1. The visual tan-like color was somewhat stronger on the upper arm, relative to lower arm, possibly because of slightly darker baseline color of the lower arm than the upper arm. The visual results are summarized in Table 2, including the fading time of the darker color, when treatment was terminated at 8 weeks and skin color was followed for additional three weeks.

The subject of assay [2] is human skin. As to the kind of experiment: Melanin deposition by DRS after topical treatment of a human subject's arm. To be noted: 4 weeks of treatment, 1% topical twice a day; vehicle 1.248. How it is done:
(§1) All the phospholipids were dissolved in an ethanol/propylene glycol vehicle (70/30, v/v) at the concentration of 1% of solid phospholipid powder.
(§2) Preparations 1, 2 and 3 were tested for their ability to induce skin darkening in one human subject, with informed consent. One volunteer, Fitzpatrick skin type II, with no history of skin cancer, no skin disease or unusual skin reaction, and no topical treatments on the study sites (the upper and lower parts of the arm) within a period of 30 days before enrollment and during the treatment period, was treated with preparations 1-3. Different preparations were used in four different studies. Two studies used the upper part of the arm, and two other studies used the lower part of the arm, which were treated twice a day for six to eight weeks with 10 μl of test phospholipid solutions (1%) in ethanol: propylene glycol (70:30, v/v) vehicle, or with vehicle alone. No other products were used and no sun exposure occurred during the treatment period.
(§3) Skin darkening was evaluated visually, and in some cases also by using a chromameter (ChromaMeter, Minolta, Osaka, Japan) and DRS (see Nguyen B. C., Br. J. Dermatol. 2003, 149(2):332-40). Measurements were taken at 4 and 8 weeks. […]

The subject of assay [3] is human skin. As to the kind of experiment: Skin colour L* by chromameter after topical treatment of a human subject's arm. The note with it: 4 weeks of treatment, 1% topical twice a day; vehicle 67.28. How it is done: as §1, §2, §3
[4] abbreviates: after termination of 8 weeks topical treatment.
Where [5] appears, read: 1% in ethanol/propylene glycol (70/30), 10 μl twice a day, topical, arm.

Regarding lysophosphatidylcholine [LPC], in the assay on human skin [1] (setting [4]), the “time at which darkening started to fade after termination of topical treatment” value lay in the range of 14 to 20 days and the “time the darkening remained visible after the end of the topical treatment” value is recorded as “at least 14 days”. In addition, the “change of visible skin darkening with routine daily activities (e.g., after water and soap washing)” value in the assay with human skin [1] (during topical treatment) is “did not change”.

As for Lysophosphatidylcholine [Preparation 2], in the assay on human skin [2], the “Melanin (DRS, arbitrary units)” value is recorded as 1.304 arbitrary units. Further, in the assay on human skin [1] (setting [5]), the “visual skin darkening, 2 WEEKS” value was “+” and the “visual skin darkening, 8 WEEKS” value is reported as “++”. In addition, in the assay with human skin [1], the “induction of visible skin darkening (in words)” value is “induced visible skin darkening”; the “visual skin darkening, 8 WKS + 1 WK” value is “++”; the “visual skin darkening, 8 WKS + 2 WKS” value was “+”; the “visual skin darkening, 8 WKS + 3 WKS” value came to 0. The “L* (Chromameter)” value in the assay with human skin [3] is on record as 67.69.

lysophosphatidylcholine [Preparation 1]: the “Melanin (DRS, arbitrary units)” value in the assay with human skin [2] is 1.274 arbitrary units. In addition, in the assay with human skin [1] (setting [5]), the “visual skin darkening, 2 WEEKS” value is reported as “+” and the “visual skin darkening, 8 WEEKS” value was “++”. Also, the “visual skin darkening, 4 WEEKS” value with human skin [1] (1% in ethanol/propylene glycol (70/30), 10 μl twice a day, topical, arm, 4 weeks of treatment) was “++”. In addition, in the assay on human skin [1], the “induction of visible skin darkening (in words)” value is “induced visible skin darkening”; the “visual skin darkening, 8 WKS + 1 WK” value is reported as “++”; the “visual skin darkening, 8 WKS + 2 WKS” value is “+”; the “visual skin darkening, 8 WKS + 3 WKS” value is listed as 0. Also, the “L* (Chromameter)” value with human skin [3] is on record as 68.27.

Source of the values: patent publication US20080241085A1, “COMPOSITIONS FOR USE IN DARKENING THE SKIN” (priority 2007, published 2008).
